Data as given in patent publication US20250129430A1, “HIGH ATP-AFFINITY PROTEIN AS THERAPEUTIC TARGET FOR INTRACTABLE CANCER MOLECULAR SUBTYPES AND INHIBITOR THEREOF” (VeraVerse Co., Ltd., priority 2021, published 2025).
Structures can show the parent of a compound that is named as a salt.

How the values were obtained:
Assay type in all cases: cell-based, human
[1] = test system: AGS; assay: Cell viability drug screen, 12-point dose-response AUC
Method in brief: (§1)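 Each cell line receives a twelve-point half-log titration of drug beginning 24 h after plating 5×10^3 cells per well. Following 72 h culture at 37 °C, luminescent signal is recorded and expressed versus vehicle. AUC is derived by the trapezoidal method.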

[2] = test system: Hs746T; assay: as above
Method in brief: (§2)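 Twelve half-log concentrations per compound were tested on gastric cancer cells with an EMT phenotype (5×10^3/well, dosed 24 h post-seeding). Viability after 72 h was quantified via luminescence relative to 0.5% DMSO, and repeats were averaged.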

[3] = test system: KATO3; assay: as above
Method in brief: as §2

[4] = test system: MKN1; assay: as above
Method in brief: as §2

[5] = test system: MKN28; assay: as above
Method in brief: as §2

[6] = test system: MKN45; assay: as above
Method in brief: as §1

[7] = test system: MKN74; assay: as above
Method in brief: as §1

[8] = test system: NCC19; assay: as above
Method in brief: as §2

[9] = test system: NCC20; assay: as above
Method in brief: as §2

[10] = test system: NCC24; assay: as above
Method in brief: as §2

[11] = test system: NCC59; assay: as above
Method in brief: as §2

[12] = test system: NCI_N87; assay: as above
Method in brief: as §2

[13] = test system: OCUM1; assay: as above
Method in brief: as §2

[14] = test system: SK4; assay: as above
Method in brief: as §2

[15] = test system: SNU16; assay: as above
Method in brief: as §2

[16] = test system: SNU1750; assay: as above
Method in brief: as §2

[17] = test system: SNU1967; assay: as above
Method in brief: as §2

[18] = test system: SNU1; assay: as above
Method in brief: as §2

[19] = test system: SNU216; assay: as above
Method in brief: as §1

[20] = test system: SNU484; assay: as above
Method in brief: as §2

[21] = test system: SNU601; assay: as above
Method in brief: as §2

[22] = test system: SNU620; assay: as above
Method in brief: as §2

[23] = test system: SNU638; assay: as above
Method in brief: as §2

[24] = test system: SNU668; assay: as above
Method in brief: as §2

[25] = test system: SNU719; assay: as above
Method in brief: as §1

[26] = test system: YCC11; assay: as above
Method in brief: as §2

[27] = test system: YCC2; assay: as above
Method in brief: as §2

[28] = test system: YCC3; assay: as above
Method in brief: as §2

[29] = test system: FU97; assay: as above; design: Average Area Under the Viability Curve (AUC), AUC norm value: scale not given here
Method in brief: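 Trapezoidal AUC of a 12-point, DMSO-normalized dose-response curve. Luminescent viability was measured after 72 h of exposure at 37° C to half-log serial dilutions (0.5% DMSO control), dosed 24 h after plating FU97 cells at 5×10^3 per well.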

[30] = test system: non-SEM-type gastric cancer cell line; assay: Cell viability drug screen, AUC summary over non-SEM-type lines; conditions: in the non-SEM-type gastric cancer cell line

COC1=CC(c2cc3ccccc3[nH]2)=N/C1=C\c1[nH]c(C)cc1C [Obatoclax mesylate (GX15-070), Obatoclax mesylate]
Average Area Under the Viability Curve (AUC), AUC norm value ([1]; AGS cells (non-SEM subtype), 72 hours): −0.9005
Average Area Under the Viability Curve (AUC), AUC norm value ([2]; Hs746T cells (SEM subtype), 72 hours): 0
Average Area Under the Viability Curve (AUC), AUC norm value ([3]; KATO3 cells, 72 hours): 1.383
Average Area Under the Viability Curve (AUC), AUC norm value ([4]; MKN1 cells, 72 hours): 0.7857
Average Area Under the Viability Curve (AUC), AUC norm value ([5]; MKN28 cells, 72 hours): −0.3769
Average Area Under the Viability Curve (AUC), AUC norm value ([6]; MKN45 cells (non-SEM subtype), 72 hours): 0.9313
Average Area Under the Viability Curve (AUC), AUC norm value ([7]; MKN74 cells, 72 hours): −1.051
Average Area Under the Viability Curve (AUC), AUC norm value ([8]; NCC19 cells, 72 hours): 1.604
Average Area Under the Viability Curve (AUC), AUC norm value ([9]; NCC20 cells, 72 hours): −0.9868
Average Area Under the Viability Curve (AUC), AUC norm value ([10]; NCC24 cells, 72 hours): 0.2511
Average Area Under the Viability Curve (AUC), AUC norm value ([11]; NCC59 cells, 72 hours): 2.5912
Average Area Under the Viability Curve (AUC), AUC norm value ([12]; NCI_N87 cells, 72 hours): 0.636
Average Area Under the Viability Curve (AUC), AUC norm value ([13]; OCUM1 cells, 72 hours): 0.1302
Average Area Under the Viability Curve (AUC), AUC norm value ([14]; SK4 cells (SEM subtype), 72 hours): −1.531
Average Area Under the Viability Curve (AUC), AUC norm value ([15]; SNU16 cells, 72 hours): 1.841
Average Area Under the Viability Curve (AUC), AUC norm value ([16]; SNU1750 cells (SEM subtype), 72 hours): −0.872
Average Area Under the Viability Curve (AUC), AUC norm value ([17]; SNU1967 cells, 72 hours): −0.4093
Average Area Under the Viability Curve (AUC), AUC norm value ([18]; SNU1 cells, 72 hours): 0.5238
Average Area Under the Viability Curve (AUC), AUC norm value ([19]; SNU216 cells (non-SEM subtype), 72 hours): −0.1398
Average Area Under the Viability Curve (AUC), AUC norm value ([20]; SNU484 cells (SEM subtype), 72 hours): −1.4
Average Area Under the Viability Curve (AUC), AUC norm value ([21]; SNU601 cells, 72 hours): 2.791
Average Area Under the Viability Curve (AUC), AUC norm value ([22]; SNU620 cells, 72 hours): 0.8129
Average Area Under the Viability Curve (AUC), AUC norm value ([23]; SNU638 cells, 72 hours): −0.5094
Average Area Under the Viability Curve (AUC), AUC norm value ([24]; SNU668 cells (SEM subtype), 72 hours): −0.2715
Average Area Under the Viability Curve (AUC), AUC norm value ([25]; SNU719 cells, 72 hours): 2.585
Average Area Under the Viability Curve (AUC), AUC norm value ([26]; YCC11 cells (SEM subtype), 72 hours): −0.8407
Average Area Under the Viability Curve (AUC), AUC norm value ([27]; YCC2 cells, 72 hours): −0.5916
Average Area Under the Viability Curve (AUC), AUC norm value ([28]; YCC3 cells, 72 hours): 2.281
Average Area Under the Viability Curve (AUC), AUC norm value ([29]; FU97 cells, 72 hours): −1.5029
AUC value [30]: high

[O-][n+]1ccccc1[S-].[O-][n+]1ccccc1[S-].[Zn+2] [PYRITHIONE ZINC, Pyrithione zinc]
area under the viability curve (AUC), normalized [1]: −0.9355
area under the viability curve (AUC), normalized [2]: −0.541
area under the viability curve (AUC), normalized [3]: 0.8219
area under the viability curve (AUC), normalized [4]: −0.4913
area under the viability curve (AUC), normalized [5]: 0.1421
area under the viability curve (AUC), normalized [6]: −1.0871
area under the viability curve (AUC), normalized [7]: −1.149
area under the viability curve (AUC), normalized [8]: 0.7336
area under the viability curve (AUC), normalized [9]: −0.7838
area under the viability curve (AUC), normalized [10]: −0.309
area under the viability curve (AUC), normalized [11]: 0.7288
area under the viability curve (AUC), normalized [12]: 1.161
area under the viability curve (AUC), normalized [13]: 0.5355
area under the viability curve (AUC), normalized [14]: 0
area under the viability curve (AUC), normalized [15]: 1.28
area under the viability curve (AUC), normalized [16]: 0.1011
area under the viability curve (AUC), normalized [17]: −0.5027
area under the viability curve (AUC), normalized [18]: 1.431
area under the viability curve (AUC), normalized [19]: −0.2272
area under the viability curve (AUC), normalized [20]: −0.9287
area under the viability curve (AUC), normalized [21]: 2.666
area under the viability curve (AUC), normalized [22]: −0.7817
area under the viability curve (AUC), normalized [23]: −0.08685
area under the viability curve (AUC), normalized [24]: 0.7681
area under the viability curve (AUC), normalized [25]: 1.547
area under the viability curve (AUC), normalized [26]: −1.337
area under the viability curve (AUC), normalized [27]: −0.08387
area under the viability curve (AUC), normalized [28]: 0.6512
area under the viability curve (AUC), normalized [29]: 0.3344
AUC value [30]: high
